According to patent publication US6803203B1, “DNA-PK assay” (Brookhaven Science Associates, priority 1993, dated 2004):
Entries after “also recorded” stand apart in the source; their conditions may differ. No end group written: not given here.

Experiments:
DNA-PK [1] = assay: DNA-PK activity in extracts of hamster cell lines; assay type: biochemical, Chinese hamster; conditions: peptide 0.2 mM; for Specific Activity + DNA: + calf thymus DNA 10 μg/ml; for Specific Activity − DNA: no added DNA
Procedure: (§1) Extracts of additional primate and rodent cells were tested for the presence of DNA-PK activity in accordance with the method of the present invention. The DNA-PK activity was determined using the methods described in Examples 1, 4 and 5 for seven human cell lines, two African green monkey kidney lines, and six rodent cell lines.
(§2) Extracts were prepared essentially as described in Example 10. Cells were lysed by freezing and thawing in hypotonic buffer; soluble (S10) “cytoplasmic” and insoluble in (P10) “nuclear” fractions were made by centrifuging lysates at 10,000×g for 10 min. The insoluble fraction was extracted with buffer containing 0.5 M KCl, which releases any DNA-PK that is bound to DNA. After centrifugation of the salt-washed pellet fraction, which removed the remaining insoluble material, the salt extract (P10S) was diluted and assayed as previously described.
(§3) Protein concentrations, determined using the Bio-Rad dye binding assay, were between 0.3 and 6 mg/ml. Extracts were incubated at 30° C. for 10 min with each peptide at 0.2 mM in the absence of added DNA (−DNA) or with 10 μg/ml calf thymus DNA (+DNA). After incubation the reaction mixtures were acidified with an equal volume of 30% acetic acid and spotted on to Whatman P-81 phosphocellulose paper (Whatman, Inc., Clifton, N.J.). The filters then were washed extensively in 15% acetic acid before the adsorbed radioactivity was quantitated as described in Example 5.
(§4) The amount of phosphate incorporated was calculated from the specific activity of the ATP. The rate of phosphate incorporation into the Ser-Gln-Glu peptide (Table 1) (SEQ ID NO: 11) in the presence of calf thymus DNA was approximately linear throughout the 10 minute reaction incubation period. Parallel assays were performed without added peptide, and these background values were subtracted to produce the activities that are shown in Table 3. Background values varied but, in all cases, were less than 0.2 nmol/min/mg (a few percent of the activity present in human cells). The specific activities were calculated from the total activity in the two fractions divided by the total protein in the two fractions. The percent of total DNA-PK activity in the S10 and P10S fractions was determined with peptide (SEQ ID NO: 11) in the presence of added calf thymus DNA. Extracts without substantial DNA-PK activity were examined for their ability to inhibit purified DNA-PK. Inhibitory activity was not detected.

DNA-PK [2] = biological target: T1, DNA-PK (Homo sapiens, UniProt P78527); assay: Poorer substrate peptides added to (SEQ ID NO: 8) phosphorylation assays; assay type: biochemical; conditions: peptide up to 250 μM; (SEQ ID NO: 8) at 100 μM
T1 construct: DNA-PK was purified from HeLa cells; endogenous in cells; host or cells: HeLa S3 cells; the endogenous enzyme was purified in house by chromatography

DNA-PK [3] = biological target: T1, DNA-PK; assay: Phosphorylation of synthetic peptides by purified DNA-PK (phosphocellulose paper binding method); assay type: biochemical
Procedure: Phenylmethylsulfonyl fluoride was added to the S10 (10,000×g) supernatant as a powder to 0.5 mM. DNA-PK activity was found in the 100,000×g (ribosomal) pellet. DNA-PK preparations typically were made from 200 ml of S10 supernatant that had been derived from approximately 10^10 cells. All steps were performed at 4° C. unless indicated otherwise.
Phosphorylation reactions were performed in a 20- or 40-μl final volume as previously described by Chen, et al., J. Virol., 10:5131-5140 (1991) and Lees-Miller, et al., Mol. Cell. […] In particular, in addition to synthetic peptide substrates or protein substrates, the assays contained 50 mM HEPES (pH 7.5), 100 mM KCl, 10 mM MgCl2, 2 mM EGTA, 0.1 mM EDTA and 0.125 mM ATP containing [^32P]ATP at 0.2 mCi/ml. […] Assays were started by adding 1 μl of kinase sample. Incubations were at 30° C. for 7 min.
For determinations of kinetic constants, the ATP concentration was 0.5 mM. When present, hsp90 was included at 0.5 mg/ml. Assay mixtures were preincubated at 30° C. for 2 min before addition of 0.1 to 0.5 μg (protein) of the DNA-PK preparation.
In particular, kinase reactions were stopped by adding an equal volume of 30% acetic acid, and portions of the acidified reaction were spotted on 2- by 2-cm squares of P-81 paper (Whatman, Inc., Clifton, N.J.). […] The P-81 squares were then transferred to scintillation vials containing 3.5 ml of water, and bound radioactivity was determined from the Cerenkov radiation. Enzyme activity was calculated from triplicate determinations, using the specific activity of the ATP and the protein concentration, which was determined by the Bio-Rad dye-binding assay (Bio-Rad (Bradford) Protein Assay Kit 1, Cat. No. 500-001, Bio-Rad Laboratories, Hercules, Calif.), using bovine serum albumin as the standard. […] The kinetic constants, Km and Vmax for each peptide sequence were calculated from plots of 1/[S] versus 1/V, the values reported are averages of at least two independent determinations.

DNA-PK [4] = assay: DNA-PK activity in extracts of mouse cell lines; assay type: biochemical; conditions: peptide 0.2 mM; for Specific Activity + DNA: + calf thymus DNA 10 μg/ml; for Specific Activity − DNA: no added DNA
Procedure: as §1, §2, §3, §4

DNA-PK [5] = assay: DNA-PK activity in extracts of rat cells; assay type: biochemical; conditions: Rat REF, peptide 0.2 mM; for Specific Activity + DNA: + calf thymus DNA 10 μg/ml; for Specific Activity − DNA: no added DNA
Procedure: as §1, §2, §3, §4

DNA-PK [6] = biological target: T1, DNA-PK; assay: Phosphorylation of synthetic peptides in crude cell extracts (HeLa, T98G); assay type: biochemical; conditions: for PO4 incorporated + DNA: + calf thymus DNA 10 μg/ml; for PO4 incorporated + DNA / PO4 incorporated − DNA: peptide 200 μM, 10 min 30° C.; for PO4 incorporated − DNA: without DNA
Procedure: (§5) To examine cells for DNA-PK content, extracts from HeLa, T98G human glioblastoma, and mouse L 929 cells were prepared by freeze-thaw lysis of cells harvested from five nearly confluent 9-cm-diameter plates as described in Example 1 and by Lees-Miller, et al. J. Biol. Chem., 264:2431-2437 (1989). T98G (ATCC CRL 1690) is a human glioblastoma cell line; L-929 (ATCC CCL 1) was derived from connective tissue of the NCTC 2071 mouse. Based on earlier work with natural protein substrates, it was expected that extracts of HeLa and T98G cells would contain a significant amount of DNA-PK activity while the extracts of mouse L 929 would contain little, if any, DNA-PK activity. Lysates in low-salt buffer were centrifuged at 10,000×g, to give a supernatant fraction (designated S10) and pellets (designated P10). The pellets were washed by resuspension in a high salt buffer (0.5 M KCl, 25 mM N-2-hydroxyethylpiperazine-N′-2-ethanesulfonic acid (HEPES; pH 7.5), 10 mM MgCl2, 1 mM dithiothreitol) and were sonicated. The sonicated suspension was centrifuged at 10,000×g for 10 min to give a second supernatant fraction (designated P10S), which was diluted with buffer lacking KCl to give a volume equal to that of the original supernatant (S10). Protein concentrations, determined using the Bio-Rad dye-binding assay, were as follows: HeLa S10, 3 mg/ml; HeLa P10S, 1 mg/ml; T98G S10, 3.5 mg/ml;,T98G P10S, 1 mg/ml; L-929 S10, 1 mg/ml; and L-929 P10S, 0.3 mg/ml. These extracts were assayed for the ability to phosphorylate (SEQ ID NOS: 11 and 20) with and without added calf thymus DNA.

DNA-PK [7] = assay: Phosphorylation of synthetic peptides in crude cell extracts (L 929); assay type: biochemical, mouse; conditions: peptide 200 μM, 10 min 30° C.
Procedure: as §5

DNA-PK [8] = assay: DNA-PK activity in extracts of monkey cell lines; assay type: biochemical, African green monkey; conditions: peptide 0.2 mM; for Specific Activity + DNA: + calf thymus DNA 10 μg/ml; for Specific Activity − DNA: no added DNA
Procedure: as §1, §2, §3, §4

- PO4 incorp. (DNA-PK [3]; each peptide at 200 μM, calf thymus DNA 10 μg/ml, 30° C.): 0 pmol/min/μg of DNA-PK
- PO4 incorporated + DNA (DNA-PK [6]; HeLa, P10S): 0.0 nmol/min/ml of extract
- PO4 incorporated − DNA (DNA-PK [6]; HeLa, P10S): 0.0 nmol/min/ml of extract
- PO4 incorporated + DNA (DNA-PK [6]; HeLa, S10): 0.3 nmol/min/ml of extract
- PO4 incorporated − DNA (DNA-PK [6]; HeLa, S10): 0.0 nmol/min/ml of extract
- PO4 incorporated + DNA (DNA-PK [6]; T98G, P10S): 0.0 nmol/min/ml of extract
- PO4 incorporated − DNA (DNA-PK [6]; T98G, P10S): 0.0 nmol/min/ml of extract
- PO4 incorporated + DNA (DNA-PK [6]; T98G, S10): 0.04 nmol/min/ml of extract
- PO4 incorporated − DNA (DNA-PK [6]; T98G, S10): 0.02 nmol/min/ml of extract
- phosphorylation by crude cell extracts (in words) (DNA-PK [6]; all extracts of Table 2 (HeLa, T98G, L 929)): poorly phosphorylated, if at all
Sequence: EPPLSEQAFADLWKK [SEQ ID NO: 20]
- Specific Activity + DNA (DNA-PK [1]; Hamster CHO, P10S): 0.06 nmol PO4/min/mg protein
- Specific Activity − DNA (DNA-PK [1]; Hamster CHO, P10S): 0.0 nmol PO4/min/mg protein
- Specific Activity + DNA (DNA-PK [1]; Hamster CHO, S10): 0.01 nmol PO4/min/mg protein
- Specific Activity − DNA (DNA-PK [1]; Hamster CHO, S10): 0.0 nmol PO4/min/mg protein
- Specific Activity + DNA (DNA-PK [1]; Hamster V79, P10S): 0.05 nmol PO4/min/mg protein
- Specific Activity − DNA (DNA-PK [1]; Hamster V79, P10S): 0.05 nmol PO4/min/mg protein
- Specific Activity + DNA (DNA-PK [1]; Hamster V79, S10): 0.0 nmol PO4/min/mg protein
- Specific Activity − DNA (DNA-PK [1]; Hamster V79, S10): 0.0 nmol PO4/min/mg protein
- inhibition of phosphorylation of (SEQ ID NO: 8) (DNA-PK [2]): None of these peptides significantly inhibited the phosphorylation
- substrate activity for DNA-PK (in words) (DNA-PK [3]): negligible substrate activity; also recorded: not phosphorylated by DNA-PK
- Specific Activity + DNA (DNA-PK [4]; Mouse L-929, P10S): 0.0 nmol PO4/min/mg protein
- Specific Activity − DNA (DNA-PK [4]; Mouse L-929, P10S): 0.0 nmol PO4/min/mg protein
- Specific Activity + DNA (DNA-PK [4]; Mouse L-929, S10): 0.0 nmol PO4/min/mg protein
- Specific Activity − DNA (DNA-PK [4]; Mouse L-929, S10): 0.0 nmol PO4/min/mg protein
- Specific Activity + DNA (DNA-PK [4]; Mouse SV-Balb/c, P10S): 0.04 nmol PO4/min/mg protein
- Specific Activity − DNA (DNA-PK [4]; Mouse SV-Balb/c, P10S): 0.0 nmol PO4/min/mg protein
- Specific Activity + DNA (DNA-PK [4]; Mouse SV-Balb/c, S10): 0.06 nmol PO4/min/mg protein
- Specific Activity − DNA (DNA-PK [4]; Mouse SV-Balb/c, S10): 0.0 nmol PO4/min/mg protein
- Specific Activity + DNA (DNA-PK [5]; P10S): 0.0 nmol PO4/min/mg protein
- Specific Activity − DNA (DNA-PK [5]; P10S): 0.03 nmol PO4/min/mg protein
- Specific Activity + DNA (DNA-PK [5]; S10): 0.0 nmol PO4/min/mg protein
- Specific Activity − DNA (DNA-PK [5]; S10): 0.02 nmol PO4/min/mg protein
- PO4 incorporated + DNA (DNA-PK [7]; P10S, + calf thymus DNA 10 μg/ml): 0.0 nmol/min/ml of extract
- PO4 incorporated − DNA (DNA-PK [7]; P10S, without DNA): 0.0 nmol/min/ml of extract
- PO4 incorporated + DNA (DNA-PK [7]; S10, + calf thymus DNA 10 μg/ml): 0.0 nmol/min/ml of extract
- PO4 incorporated − DNA (DNA-PK [7]; S10, without DNA): 0.0 nmol/min/ml of extract
- Specific Activity + DNA (DNA-PK [8]; Monkey COS-1, P10S): 0.24 nmol PO4/min/mg protein
- Specific Activity − DNA (DNA-PK [8]; Monkey COS-1, P10S): 0.0 nmol PO4/min/mg protein
- Specific Activity + DNA (DNA-PK [8]; Monkey COS-1, S10): 0.02 nmol PO4/min/mg protein
- Specific Activity − DNA (DNA-PK [8]; Monkey COS-1, S10): 0.0 nmol PO4/min/mg protein
- Specific Activity + DNA (DNA-PK [8]; Monkey CV-1, P10S): 0.08 nmol PO4/min/mg protein
- Specific Activity − DNA (DNA-PK [8]; Monkey CV-1, P10S): 0.08 nmol PO4/min/mg protein
- Specific Activity + DNA (DNA-PK [8]; Monkey CV-1, S10): 0.05 nmol PO4/min/mg protein
- Specific Activity − DNA (DNA-PK [8]; Monkey CV-1, S10): 0.0 nmol PO4/min/mg protein
